Data taken from patent US20240122180A1, “FUNGICIDAL HALOMETHYL KETONES AND HYDRATES AND THEIR MIXTURES” (FMC Corporation, priority 2020, published 2024).

System: Puccinia recondita f. sp. tritici (the causal agent of wheat leaf rust)
Test: Test B: preventive spray on wheat seedlings, disease rating (100 = 100% control; * 50 ppm, ** 10 ppm, *** 250 ppm)
Type: in vivo
Conditions: Puccinia recondita, 100 = 100% disease control; for pest or weed control at 10 ppm: 10 ppm test suspension; for pest or weed control at 50 ppm: 50 ppm test suspension
Excerpt: General protocol for preparing test suspensions for Tests A-E: the test compounds were first dissolved in acetone in an amount equal to 3% of the final volume and then suspended at the desired concentration (in ppm) in acetone and purified water (50/50 mix by volume) containing 250 ppm of the surfactant […] (polyhydric alcohol esters). The resulting test suspensions were then used in Tests A-E.
The test solution was sprayed to the point of run-off on wheat seedlings. The following day the seedlings were inoculated with a spore suspension of Puccinia recondita f. sp. tritici (the causal agent of wheat leaf rust) and incubated in a saturated atmosphere at 20° C. for 24 h, and then moved to a growth chamber at 20° C. for 6 days, after which time disease ratings were made.
Results for Tests A-E are given in Table A. In the Table, a rating of 100 indicates 100% disease control and a rating of 0 indicates no disease control (relative to the controls). An asterisk “*” or a double asterisk “**” or a triple asterisk “***” next to the rating value indicates a 50 ppm, 10 ppm and 250 ppm test suspension was used, respectively. A dash (-) indicates the compound was not tested.

SMILES | pest or weed control at 10 ppm (wheat seedlings) [%] | other results
CCOC(=O)c1cnn(Cc2ccc(OCC3(C(F)(F)F)OCC(C)(C)O3)cc2)c1 (stereo not drawn) [Compound 12, ethyl 1-[[4-[[4,4-dimethyl-2-(trifluoromethyl)-1,3-dioxolan-2-yl]methoxy]-phenyl]methyl]-1H-pyrazole-4-carboxylate] | 0 | –
CC(C)COC(=O)c1cnn(Cc2ccc(OCC3(C(F)(F)F)OCCO3)cc2)c1 [Compound 126, 2-methylpropyl 1-[[4-[[2-(trifluoromethyl)-1,3-dioxolan-2-yl]methoxy]phenyl]methyl]-1H-pyrazole-4-carboxylate] | 0 | –
O=C(OCC1CC1)c1cnn(Cc2ccc(OCC3(C(F)(F)F)OCCO3)cc2)c1 [Compound 127, cyclopropylmethyl 1-[[4-[[2-(trifluoromethyl)-1,3-dioxolan-2-yl]methoxy]phenyl]methyl]-1H-pyrazole-4-carboxylate] | 0 | –
CCOC(=O)c1cnn(CCc2ccc(O/C=C(\OCC)C(F)(F)F)cc2)c1 [Compound 132, ethyl 1-[2-[4-[[(1Z)-2-ethoxy-3,3,3-trifluoro-1-propen-1-yl]oxy]phenyl]ethyl]-1H-pyrazole-4-carboxylate] | 0 | –
COCCOC(=O)c1cnn(Cc2ccc(OCC3(C(F)(F)F)OCCO3)cc2)c1 [Compound 162, 2-methoxyethyl 1-[[4-[[2-(trifluoromethyl)-1,3-dioxolan-2-yl]methoxy]phenyl]methyl]-1H-pyrazole-4-carboxylate] | 0 | –
CC#CCOC(=O)c1cnn(Cc2ccc(OCC3(C(F)(F)F)OCCO3)cc2)c1 [Compound 163, 2-butyn-1-yl 1-[[4-[[2-(trifluoromethyl)-1,3-dioxolan-2-yl]methoxy]phenyl]methyl]-1H-pyrazole-4-carboxylate] | 0 | –
N#CCCCOC(=O)c1cnn(Cc2ccc(OCC3(C(F)(F)F)OCCO3)cc2)c1 [Compound 171, 3-cyanopropyl 1-[[4-[[2-(trifluoromethyl)-1,3-dioxolan-2-yl]methoxy]phenyl]methyl]-1H-pyrazole-4-carboxylate] | 0 | –
CCOC(=O)c1ccn(Cc2ccc(O/C=C(\OCC)C(F)(F)F)cc2)n1 [Compound 231, ethyl 1-[[4-[[(1Z)-2-ethoxy-3,3,3-trifluoro-1-propen-1-yl]oxy]phenyl]methyl]-1H-pyrazole-3-carboxylate] | 0 | –
CCOC(=O)c1cnn(Cc2ccc(O/C=C(\OCC)C(F)(F)F)c(F)c2)c1 [Compound 262, ethyl 1-[[4-[[(1Z)-2-ethoxy-3,3,3-trifluoro-1-propen-1-yl]oxy]-3-fluorophenyl]methyl]-1H-pyrazole-4-carboxylate] | – | pest or weed control at 10 ppm (0 = no control): 0%
CCOC(=O)c1cnn(Cc2cccc(OCC(O)(O)C(F)(F)F)c2)c1 [Compound 266, ethyl 1-[[3-(3,3,3-trifluoro-2,2-dihydroxypropoxy)phenyl]methyl]-1H-pyrazole-4-carboxylate] | – | pest or weed control at 50 ppm (0 = no control): 74%
CCOC(=O)c1cnn(COCc2ccc(O/C=C(\OCC)C(F)(F)F)cc2)c1 [Compound 297, ethyl 1-[[4-[[(1Z)-2-ethoxy-3,3,3-trifluoro-1-propen-1-yl]oxy]phenylmethoxy]methyl]-1H-pyrazole-4-carboxylate] | – | pest or weed control at 10 ppm (0 = no control): 0%
CCO/C(=C\Oc1cccc(Cn2cc(C(=O)OC)cn2)c1)C(F)(F)F [Compound 330, methyl 1-[[3-[[(1Z)-2-ethoxy-3,3,3-trifluoro-1-propen-1-yl]oxy]phenyl]methyl]-1H-pyrazole-4-carboxylate] | – | pest or weed control at 10 ppm (0 = no control): 0%
CCCOC(=O)c1cnn(Cc2cccc(O/C=C(\OCC)C(F)(F)F)c2)c1 [Compound 331, propyl 1-[[3-[[(1Z)-2-ethoxy-3,3,3-trifluoro-1-propen-1-yl]oxy]phenyl]methyl]-1H-pyrazole-4-carboxylate] | – | pest or weed control at 10 ppm (0 = no control): 0%
CCOC(=O)c1cnn(Cc2cccc(OCC3(C(F)(F)F)OCCO3)c2)c1 [compound 146] | – | pest or weed control at 50 ppm (wheat seedlings): 0%
N#Cc1cccc(OCC2(C(F)(F)F)OCCO2)c1 [compound 147] | – | pest or weed control at 50 ppm (wheat seedlings): 0%
